These results are taken from patent US11760754B2, “Heterocyclic mitochondrial activity inhibitors and uses thereof” (UNIVERSITÉ DE MONTRÉAL, priority 2017, dated 2023).

For one experiment, the system named is OCI-AML3 cells. Kind of experiment: OCI-AML3 cell growth inhibition, dose-response viability assay (CellTiterGlo). It is filed as cell-based. The settings on record: Homo sapiens, OCI-AML-3, 144 h, read-out: AML-3 EC50. On the procedure: Cell dose-response viability assays. […] In the initial screen, compounds were added to seeded cells in serial dilutions (10 dilutions, 1:3, starting from […] 20 μM), in duplicates.
(§1) The potency of the compounds of Example 6 at inhibiting OCI-AML3 cell growth was tested using a procedure similar to that described for Mutritinib in Example 1. […] Murine MLL-AF9 leukemia cells (female cells) were generated by infection with VSV-G-pseudotyped MSCV MLL-AF9 IRES Puro (subcloned from a construct by Frédéric Barabé, Laval U, Quebec, QC, Canada).
(§2) Compounds were added to seeded cells in serial dilutions from 10 μM to 0.5 nM, in duplicates or quadruplicates.

Another experiment relates to MLL-AF9 cells. Description: MLL-AF9 leukemia cell growth inhibition, dose-response viability assay (CellTiterGlo). The format is cell-based, murine. The note with it: Mus musculus, MLL-AF9, 120 h, read-out: MLL-AF9 EC50. On the procedure:
as §1, §2
A general note: In ATP-based viability assays light output follows the ATP content of the culture.

Bounds are passed on as bounds.

As to `FC(F)(F)c1ccc(/C=C/c2nc(COc3ccc(CCCn4ccnn4)cc3)co2)cc1` [Compound 50, (E)-4-((4-(3-(1H-1,2,3-triazol-1-yl)propyl)phenoxy)methyl)-2-(4-(trifluoromethyl)styryl)oxazole], the results for the concentration for a half-maximal effect (EC50) in the experiment on OCI-AML3 cells and in the experiment on MLL-AF9 cells were 1 to 10 µM and 0.1 to 0.5 µM, respectively.
For `OCCc1nccn1CCCCc1ccc(OCc2coc(/C=C/c3ccc(C(F)(F)F)cc3)n2)cc1` [Compound 51, (E)-2-(1-(4-(4-((2-(4-(trifluoromethyl)styryl)oxazol-4-yl)methoxy)phenyl)butyl)-1H-imidazol-2-yl)ethanol] the same measures were 1 to 10 µM and 0.5 to 1 µM.
With `NCCc1nccn1CCCCc1ccc(OCc2coc(/C=C/c3ccc(C(F)(F)F)cc3)n2)cc1` [Compound 52, (E)-2-(1-(4-(4-((2-(4-(trifluoromethyl)styryl)oxazol-4-yl)methoxy)phenyl)butyl)-1H-imidazol-2-yl)ethanamine], the EC50 in the experiment with OCI-AML3 cells and in the experiment with MLL-AF9 cells was 1 to 10 µM each time.
Turning to `CN(C)C(=O)OCCc1nccn1CCCCc1ccc(OCc2coc(/C=C/c3ccc(C(F)(F)F)cc3)n2)cc1` [Compound 53, (E)-2-(1-(4-(4-((2-(4-(trifluoromethyl)styryl)oxazol-4-yl)methoxy)phenyl)butyl)-1H-imidazol-2-yl)ethyl dimethylcarbamate], the values for the concentration giving a half-maximal response (EC50) in the experiment with OCI-AML3 cells and in the experiment on MLL-AF9 cells were 0.1 to 0.5 µM and 0.05 to 0.1 µM, respectively.
In the case of `CS(=O)(=O)NCCc1nccn1CCCCc1ccc(OCc2coc(/C=C/c3ccc(C(F)(F)F)cc3)n2)cc1` [Compound 54, (E)-N-(2-(1-(4-(4-((2-(4-(trifluoromethyl)styryl)oxazol-4-yl)methoxy)phenyl)butyl)-1H-imidazol-2-yl)ethyl)methanesulfonamide], the EC50 with OCI-AML3 cells and in the experiment with MLL-AF9 cells was 0.1 to 0.5 µM throughout.
With `O=S(=O)(NCCc1nccn1CCCCc1ccc(OCc2coc(/C=C/c3ccc(C(F)(F)F)cc3)n2)cc1)C(F)(F)F` [Compound 55, (E)-1,1,1-trifluoro-N-(2-(1-(4-(4-((2-(4-(trifluoromethyl)styryl)oxazol-4-yl)methoxy)phenyl)butyl)-1H-imidazol-2-yl)ethyl)methanesulfonamide], the figures for the concentration for a half-maximal effect (EC50) in the experiment on OCI-AML3 cells and in the experiment with MLL-AF9 cells were 0.5 to 1 µM and 0.1 to 0.5 µM, respectively.
In the case of `FC(F)(F)c1ccc(/C=C/c2cccc(COc3ccc(CCCCn4ccnn4)cc3)c2)cc1` [Compound 56, (E)-1-(4-(4-((3-(4-(trifluoromethyl)styryl)benzyl)oxy)phenyl)butyl)-1H-1,2,3-triazole], the EC50 in the experiment with OCI-AML3 cells and in the experiment with MLL-AF9 cells was 1 to 10 µM throughout.
Consider `FC(F)(F)c1ccc(/C=C/c2ccc(COc3ccc(CCCCn4ccnn4)cc3)cc2)cc1` [Compound 57, (E)-1-(4-(4-((4-(4-(trifluoromethyl)styryl)benzyl)oxy)phenyl)butyl)-1H-1,2,3-triazole], for which the 50% effective concentration (EC50) (as a rule, the midpoint of the concentration-response curve) fell in the range of 1 to 10 µM in the experiment with OCI-AML3 cells and 0.5 to 1 µM with MLL-AF9 cells.
The matching figures for `COC(=O)c1ccc(/C=C/c2nc(COc3ccc(CCCCn4ccnn4)cc3)co2)cc1` [Compound 58, (E)-methyl 4-(2-(4-((4-(4-(1H-1,2,3-triazol-1-yl)butyl)phenoxy)methyl)oxazol-2-yl)vinyl)benzoate]: 0.5 to 1 µM and 1 to 10 µM.
Take `C#CCNC(=O)c1ccc(/C=C/c2nc(COc3ccc(CCCCn4ccnn4)cc3)co2)cc1` [Compound 59, (E)-4-(2-(4-((4-(4-(1H-1,2,3-triazol-1-yl)butyl)phenoxy)methyl)oxazol-2-yl)vinyl)-N-(prop-2-yn-1-yl)benzamide]: the EC50 in the experiment on OCI-AML3 cells fell in the range of 0.5 to 1 µM; in the experiment on MLL-AF9 cells it was 0.1 to 0.5 µM.
For `OCc1ccc(/C=C/c2nc(COc3ccc(CCCCn4ccnn4)cc3)co2)cc1` [Compound 60, (E)-(4-(2-(4-((4-(4-(1H-1,2,3-triazol-1-yl)butyl)phenoxy)methyl)oxazol-2-yl)vinyl)phenyl)methanol] the same measures were 1 to 10 µM and 1 to 10 µM.
For `COc1ccc(/C=C/c2nc(COc3ccc(CCCCn4ccnn4)cc3)co2)c(F)c1` [Compound 61, (E)-4-((4-(4-(1H-1,2,3-triazol-1-yl)butyl)phenoxy)methyl)-2-(2-fluoro-4-methoxystyryl)oxazole] the same measures were 0.1 to 0.5 µM and 0.1 to 0.5 µM.
Take `Oc1ccc(/C=C/c2nc(COc3ccc(CCCCn4ccnn4)cc3)co2)cc1` [Compound 62, (E)-4-(2-(4-((4-(4-(1H-1,2,3-triazol-1-yl)butyl)phenoxy)methyl)oxazol-2-yl)vinyl)phenol]: the EC50 in the experiment with OCI-AML3 cells and in the experiment on MLL-AF9 cells was 0.1 to 0.5 µM throughout.
As for `NC(=O)c1ccc(/C=C/c2nc(COc3ccc(CCCCn4ccnn4)cc3)co2)cc1` [Compound 63, (E)-4-(2-(4-((4-(4-(1H-1,2,3-triazol-1-yl)butyl)phenoxy)methyl)oxazol-2-yl)vinyl)benzamide], the EC50 with OCI-AML3 cells was 0.5 to 1 µM; with MLL-AF9 cells, 1 to 10 µM.
Turning to `C#Cc1ccc(/C=C/c2nc(COc3ccc(CCCCn4ccnn4)cc3)co2)cc1` [Compound 64, (E)-4-((4-(4-(1H-1,2,3-triazol-1-yl)butyl)phenoxy)methyl)-2-(4-ethynylstyryl)oxazole], the values for the concentration for a half-maximal effect (EC50) in the experiment with OCI-AML3 cells and in the experiment on MLL-AF9 cells were 1 to 10 µM and 0.5 to 1 µM, respectively.
The matching figures for `O=[N+]([O-])c1ccc(/C=C/c2nc(COc3ccc(CCCCn4ccnn4)cc3)co2)c(F)c1` [Compound 65, (E)-4-((4-(4-(1H-1,2,3-triazol-1-yl)butyl)phenoxy)methyl)-2-(2-fluoro-4-nitrostyryl)oxazole]: 0.05 to 0.1 µM and less than 0.05 µM.
For `Nc1ccc(/C=C/c2nc(COc3ccc(CCCCn4ccnn4)cc3)co2)c(F)c1` [Compound 66, (E)-4-(2-(4-((4-(4-(1H-1,2,3-triazol-1-yl)butyl)phenoxy)methyl)oxazol-2-yl)vinyl)-3-fluoroaniline] the same measures were 1 to 10 µM and 1 to 10 µM.
For `[N-]=[N+]=Nc1ccc(/C=C/c2nc(COc3ccc(CCCCn4ccnn4)cc3)co2)c(F)c1` [Compound 67, (E)-4-((4-(4-(1H-1,2,3-triazol-1-yl)butyl)phenoxy)methyl)-2-(4-azido-2-fluorostyryl)oxazole] the same measures were 0.1 to 0.5 µM and 0.1 to 0.5 µM.
As for `CN(C)C(=O)OCCc1cn(CCCCc2ccc(OCc3coc(/C=C/c4ccc(C(F)(F)F)cc4)n3)cc2)nn1` [Compound 68, (E)-2-(1-(4-(4-((2-(4-(trifluoromethyl)styryl)oxazol-4-yl)methoxy)phenyl)butyl)-1H-1,2,3-triazol-4-yl)ethyl dimethylcarbamate], the EC50 in the experiment on OCI-AML3 cells fell in the range of 0.5 to 1 µM; in the experiment with MLL-AF9 cells it was 0.1 to 0.5 µM.
The matching figures for `COCCNC(=O)OCCc1cn(CCCCc2ccc(OCc3coc(/C=C/c4ccc(C(F)(F)F)cc4)n3)cc2)nn1` [Compound 69, (E)-2-(1-(4-(4-((2-(4-(trifluoromethyl)styryl)oxazol-4-yl)methoxy)phenyl)butyl)-1H-1,2,3-triazol-4-yl)ethyl (2-methoxyethyl)carbamate]: 0.5 to 1 µM and 0.1 to 0.5 µM.
The matching figures for `CC(C)NC(=O)OCCc1cn(CCCCc2ccc(OCc3coc(/C=C/c4ccc(C(F)(F)F)cc4)n3)cc2)nn1` [Compound 70, (E)-2-(1-(4-(4-((2-(4-(trifluoromethyl)styryl)oxazol-4-yl)methoxy)phenyl)butyl)-1H-1,2,3-triazol-4-yl)ethyl isopropylcarbamate]: 0.5 to 1 µM and 0.1 to 0.5 µM.
For `O=S1(=O)CCN(Cc2cn(CCCCc3ccc(OCc4coc(/C=C/c5ccc(C(F)(F)F)cc5F)n4)cc3)nn2)CC1` [Compound 71, (E)-4-((1-(4-(4-((2-(2-fluoro-4-(trifluoromethyl)styryl)oxazol-4-yl)methoxy)phenyl)butyl)-1H-1,2,3-triazol-4-yl)methyl)thiomorpholine 1,1-dioxide] the same measures were 0.1 to 0.5 µM and less than 0.05 µM.
Turning to `CN(C)c1cccc2c(S(=O)(=O)NCCNC(=O)c3ccc(/C=C/c4nc(COc5ccc(CCCCn6ccnn6)cc5)co4)cc3)cccc12` [Compound 72, (E)-4-(2-(4-((4-(4-(1H-1,2,3-triazol-1-yl)butyl)phenoxy)methyl)oxazol-2-yl)vinyl)-N-(2-(5-(dimethylamino)naphthalene-1-sulfonamido)ethyl)benzamide], the figures for the EC50 in the experiment with OCI-AML3 cells and in the experiment on MLL-AF9 cells were 1 to 10 µM and 0.5 to 1 µM, respectively.
The matching figures for `Fc1ccc2[nH]c(-c3nc(COc4ccc(CCCCn5ccnn5)cc4)co3)cc2c1` [Compound 73]: 0.1 to 0.5 µM and less than 0.05 µM.
The matching figures for `C/C(=C\c1nc(COc2ccc(CCCCn3ccnn3)cc2)co1)c1ccc(C(F)(F)F)cc1` [Compound 74, (E)-4-((4-(4-(1H-1,2,3-triazol-1-yl)butyl)phenoxy)methyl)-2-(2-(4-(trifluoromethyl)phenyl)prop-1-en-1-yl)oxazole]: 1 to 10 µM and 0.1 to 0.5 µM.
For `FC(F)(F)c1ccc(-c2ccc(COc3ccc(CCCCn4ccnn4)cc3)cn2)cc1` [Compound 75], the EC50 with OCI-AML3 cells and with MLL-AF9 cells was 1 to 10 µM throughout.
With `FC(F)(F)c1ccc(C2CC2c2nc(COc3ccc(CCCCn4ccnn4)cc3)co2)cc1` (centres unmarked) [Compound 76, 4-((4-(4-(1H-1,2,3-triazol-1-yl)butyl)phenoxy)methyl)-2-(2-(4-(trifluoromethyl)phenyl)cyclopropyl)oxazole], the half-maximal effective concentration (EC50) with OCI-AML3 cells and in the experiment with MLL-AF9 cells was 1 to 10 µM each time.
Take `COC(=O)c1coc(COc2ccc(CCCCn3ccnn3)cc2)n1` [Compound 77, Methyl 2-((4-(4-(1H-1,2,3-triazol-1-yl)butyl)phenoxy)methyl)oxazole-4-carboxylate]: the concentration giving a half-maximal response (EC50) in the experiment with OCI-AML3 cells is 1 to 10 µM; with MLL-AF9 cells, greater than 10 µM.
